What was measured:
[1] = in vivo
In short: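 Female New Zealand white rabbits (INRA 1777 line, 2 wk old, n=16 treated, 16 vehicle controls) received an oral eight-compound mixture: loading plus maintenance dose, then daily maintenance dose for 17 wk. Dosing volume 1mL/kg adjusted weekly to predicted BW; serum obtained after clotting and centrifugation, stored at −20°C.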

[2] = Estimation of loading and daily maintenance doses and NLME model simulations; set-up: species or system female rabbits; conditions: oral; for Computed maintenance dose: daily; for Computed maintenance dose / Computed loading dose: scaled to the targeted CSS of Table 6; for Daily maintenance dose: to maintain serum concentration of 1 ng/mL, daily CL×Css/F; for Daily maintenance dose / Loading dose: DEHP dose for MEHP in serum; for Loading dose: to rapidly attain serum concentration of 1 ng/mL, Vss×Css/F
In short: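 Loading and daily maintenance doses computed from TK equations for a nominal CSS of 1 ng/mL, then scaled to oral doses for female rabbits. NLME model simulated central and peripheral compartment amounts over repeated daily maintenance dosing.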

[3] = in vivo; remark: listed apart in the source
In short: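 Female New Zealand white rabbits (10-wk, 2.37±0.14kg) got the compound mixture IV via ear-vein catheter or orally into the mouth; serum sampled 15 min to 28 d, 3 (or 6 at 30 min) rabbits per time. Sparse-data noncompartmental analysis gave AUC (linear trapezoidal), CL or CL_F, half-life and F.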

[4] = female, New Zealand white (INRA 1777 line), rabbit, in vivo, po
[5] = female, New Zealand white (INRA 1777 line), rabbit, in vivo, po, Serum concentration
[6] = female, New Zealand white, rabbit, in vivo, po, Serum concentration
[7] = oral mixture dosing, NCA, n=12, MEHP after oral DEHP

Compound: ClC(Cl)=C(c1ccc(Cl)cc1)c1ccc(Cl)cc1 [pp′DDE, 1,1-Dichloro-2,2-bis(p-chlorophenyl)ethylene]
- concentration at 17 wk [1, 4]: 25 ± 12 ng/mL
- Computed maintenance dose [2]: 0.095 mg/kg
- Computed loading dose [2]: 1,039 μg/kg
- Daily maintenance dose [2]: 0.0045 mg/kg
- Loading dose [2]: 0.049 mg/kg
- AUC(0-inf) [3, 4]: 78.6 µM·h
- CL/F [3, 4]: 3 mL/min/kg
- Cmax [3, 4]: 580 nM
- MRT [3, 4]: 307 h
- Tmax [3, 4]: 24 h
- Vd/F [3, 4]: 68.8 L/kg
- bioavailability [3, 4]: 62%
- half-life [3, 4]: 260 h
- Serum concentration ([3]; female, New Zealand white (INRA 1777 line), rabbit, in vivo, po, 24 h): 430 nM
- Serum concentration ([3]; female, New Zealand white (INRA 1777 line), rabbit, in vivo, po, 672.02 h): 40 nM
- concentration at 0.57 h [3, 5]: 16 nM
- concentration at 23.98 h [3, 5]: 250 nM
- concentration at 24 h [3, 5]: 720 nM
- concentration at 168 h [3, 5]: 110 nM
- concentration at 671.96 h [3, 5]: 24 nM
- concentration at 672.02 h [3, 5]: 31 nM
- Serum concentration ([3]; female, New Zealand white, rabbit, in vivo, po, 72 h): 200 nM
- concentration at 71.96 h [3, 6]: 250 nM
- concentration at 72 h [3, 6]: 140 nM
- concentration at 168 h [3, 6]: 110 nM
- concentration at 168.02 h [3, 6]: 91 nM

Compound: O=S(=O)(c1ccc(O)cc1)c1ccc(O)cc1 [BPS, bisphenol S]
- Mean serum concentration of (unconjugated) BPS, estimated ([1]; estimated from total BPS and 7% unconjugated fraction, targeted CSS 1 ng/mL): 0.98 ng/mL
- Computed maintenance dose [2]: 0.122 mg/kg
- Computed loading dose [2]: 32 µg/kg
- Daily maintenance dose [2]: 0.122 mg/kg
- Loading dose [2]: 0.032 mg/kg
- MRT [3, 7]: 6.54 h
- Tmax [3, 7]: 0.23 h
- Serum concentration ([3]; oral, rabbit 13, 4.30 h, MEHP after oral DEHP): 140 nM
- Serum concentration ([3]; oral, rabbit 14, 0.37 h, MEHP after oral DEHP): 1550 nM
- Serum concentration ([3]; oral, rabbit 14, 4.17 h, MEHP after oral DEHP): 130 nM
- Serum concentration ([3]; oral, rabbit 15, 4.05 h, MEHP after oral DEHP): 110 nM
- Serum concentration ([3]; oral, rabbit 15, 23.98 h, MEHP after oral DEHP): 12 nM
- Serum concentration ([3]; oral, rabbit 16, 0.55 h, MEHP after oral DEHP): 320 nM
- Serum concentration ([3]; oral, rabbit 16, 8.22 h, MEHP after oral DEHP): 50 nM
- Serum concentration ([3]; oral, rabbit 16, 72.00 h, MEHP after oral DEHP): < 4 nM
- Serum concentration ([3]; oral, rabbit 17, 0.53 h, MEHP after oral DEHP): 58 nM
- Serum concentration ([3]; oral, rabbit 17, 8.48 h, MEHP after oral DEHP): 121 nM
- Serum concentration ([3]; oral, rabbit 17, 72.00 h, MEHP after oral DEHP): < 4 nM
- Serum concentration ([3]; oral, rabbit 18, 0.55 h, MEHP after oral DEHP): 940 nM
- Serum concentration ([3]; oral, rabbit 18, 8.00 h, MEHP after oral DEHP): 49 nM
- Serum concentration ([3]; oral, rabbit 18, 71.96 h, MEHP after oral DEHP): < 4 nM
- Serum concentration ([3]; oral, rabbit 19, 1.02 h, MEHP after oral DEHP): 190 nM
- Serum concentration ([3]; oral, rabbit 19, 12.00 h, MEHP after oral DEHP): 87 nM
- Serum concentration ([3]; oral, rabbit 20, 1.07 h, MEHP after oral DEHP): 150 nM
- Serum concentration ([3]; oral, rabbit 20, 12.00 h, MEHP after oral DEHP): 51 nM
- Serum concentration ([3]; oral, rabbit 21, 1.08 h, MEHP after oral DEHP): 97 nM
- Serum concentration ([3]; oral, rabbit 21, 12.00 h, MEHP after oral DEHP): 100 nM
- Serum concentration ([3]; oral, rabbit 22, 2.00 h, MEHP after oral DEHP): 120 nM
- Serum concentration ([3]; oral, rabbit 23, 2.00 h, MEHP after oral DEHP): 88 nM
- Serum concentration ([3]; oral, rabbit 24, 2.22 h, MEHP after oral DEHP): 110 nM
- AUC0−inf ([3]; serum, oral mixture dosing, NCA, n=12, MEHP after oral DEHP): 3.38 µM·h
- Cmax ([3]; serum, oral mixture dosing, NCA, n=12, doses in Table 3 r3, MEHP measured after oral DEHP, BPSG after BPS): 6930 nM

Reference: article PMC8597046, “Use of Mixture Dosing and Nonlinear Mixed Effect Modeling of Eight Environmental Contaminants in Rabbits to Improve Extrapolation Value of Toxicokinetic Data” (Environmental Health Perspectives, 2021)
